According to US6864363B2 (priority 2000, dated 2005):
Numbered stars: 1 amine (or outer) side, 2 acyl side, 3 side chain; on linkers, the order of the positions; unused ones are H or OH. Peptide text beside a SMILES is read from it. * marks the point of attachment. pNA = O=[N+]([O-])c1ccc(N*)cc1; Suc = O=C(CCC(=O)[*:2])[*:1]; Cbz = O=C(OCc1ccccc1)*

System: P. gingivalis DPP-7
Assay: Kinetic analysis of p-nitroanilide substrate cleavage by DPP-7
Format: biochemical, Porphyromonas gingivalis
Conditions: for hydrolysis of chromogenic substrate by DPP-7: p-nitroanilide substrates; for Km / Vmax: 0.2 M HEPES, pH 7.8, 37° C.
Description: Kinetic Analysis—Routinely, the dipeptidylpeptidase amidolytic activity was measured with H-Ala-Phe-pNA (1 mM) in 0.2 M HEPES, pH 7.8 at 37° C. The reaction was followed for specific time intervals in a thermostated ELISA reader (SpectraMax, Applied Biosystem) and the release of p-nitroaniline was monitored at 405 nm. Other p-nitroanilide substrates were used in the same manner. For inhibition studies, the enzyme was first preincubated with an inhibitor for 15 minutes at 37° C., substrate added, and residual activity recorded. The initial steady-state velocity (v0) was determined by continuous assay for the range of substrate concentrations (100 nM to 1 mM). Km and Vmax were determined by hyperbolic regression of the kinetic data using the software package Hyper Version 1.02 obtained from Dr. J. S. Easterby (University of Liverpool, UK).
Substrate Specificity—Among several chromogenic substrates tested, only those with an aliphatic or an aromatic side chain residues in the second, penultimate position were rapidly hydrolyzed by DPP-7 (Table 2).

Row | Molecule | hydrolysis of chromogenic substrate by DPP-7 | Km | Vmax
1 | CC[C@H](C)[C@H](N)C(=O)Nc1ccc([N+](=O)[O-])cc1 [H-Ile-pNA] | none of these was hydrolysed |  | 
2 | C[C@H](NC(=O)OCc1ccccc1)C(=O)N[C@@H](C)C(=O)Nc1ccc([N+](=O)[O-])cc1 [Z-Ala-Ala-pNA] (Cbz-Ala-Ala-pNA) | none of these was hydrolysed |  | 
3 | CC(C)[C@H](NC(=O)[C@H](C)NC(=O)[C@H](C)NC(=O)CCC(=O)O)C(=O)N[C@@H](C)C(=O)Nc1ccc([N+](=O)[O-])cc1 [N-suc-Ala-Ala-Val-Ala-pNA] (Suc-AAVA-pNA) | none of these was hydrolysed |  | 
4 | NCC(=O)NC(Cc1ccccc1)C(=O)Nc1ccc([N+](=O)[O-])cc1 (stereo not drawn) [H-Gly-Phe-pNA] |  | 256 µM | 54.54
5 | CC(N)C(=O)NC(C)C(=O)Nc1ccc([N+](=O)[O-])cc1.Cl (stereo not drawn) [H-Ala-Ala-pNA] (H-Ala-Ala-pNA; configuration not given here) |  | 313 µM | 129.65
6 | N=C(N)NCCC[C@H](NC(=O)OCc1ccccc1)C(=O)Nc1ccc([N+](=O)[O-])cc1 [Z-Arg-pNA] | none of these was hydrolysed |  | 
7 | CC(C)C[C@H](NC(=O)[C@@H]1CCCN1C(=O)[C@H](C)NC(=O)[C@H](C)NC(=O)CCC(=O)O)C(=O)Nc1ccc([N+](=O)[O-])cc1 [N-suc-Ala-Ala-Pro-Leu-pNA] (Suc-AAPL-pNA) | none of these was hydrolysed |  | 
8 | C[C@H](N)C(=O)N1CCC[C@H]1C(=O)Nc1ccc([N+](=O)[O-])cc1 [H-Ala-Pro-pNA] (H-Ala-Pro-pNA) | none of these was hydrolysed |  | 
9 | N-met-Ala-Pro-Val-pNA | none of these was hydrolysed |  | 
10 | CC(C)C[C@H](N)C(=O)Nc1ccc([N+](=O)[O-])cc1 [H-Leu-pNA] | none of these was hydrolysed |  | 
11 | NCC(=O)N[C@@H](CCC(=O)O)C(=O)Nc1ccc([N+](=O)[O-])cc1 [H-Gly-Glu-pNA] (H-Gly-Glu-pNA) | none of these was hydrolysed |  | 
12 | NCC(=O)N[C@@H](CCCN=C(N)N)C(=O)Nc1ccc([N+](=O)[O-])cc1 [H-Gly-Arg-pNA] (H-Gly-Arg-pNA) | none of these was hydrolysed |  | 
13 | NCC(=O)NCC(=O)Nc1ccc([N+](=O)[O-])cc1 [H-Gly-Gly-pNA] (H-Gly-Gly-pNA) | none of these was hydrolysed |  | 
14 | C[C@H](N)C(=O)N[C@@H](C)C(=O)N[C@@H](Cc1ccccc1)C(=O)Nc1ccc([N+](=O)[O-])cc1 [H-Ala-Ala-Phe-pNA] (H-Ala-Ala-Phe-pNA) | none of these was hydrolysed |  | 
15 | N[C@@H](Cc1ccccc1)C(=O)Nc1ccc([N+](=O)[O-])cc1 [H-Phe-pNA] | none of these was hydrolysed |  | 
16 | C[C@H](NC(=O)CCC(=O)O)C(=O)N[C@@H](C)C(=O)N1CCC[C@H]1C(=O)N[C@@H](CCC(=O)O)C(=O)Nc1ccc([N+](=O)[O-])cc1 [N-suc-Ala-Ala-Pro-Glu-pNA] (Suc-AAPE-pNA) | none of these was hydrolysed |  | 
17 | Br.Br.NCCCC[C@H](N)C(=O)Nc1ccc([N+](=O)[O-])cc1 [H-Lys-pNA] | none of these was hydrolysed |  | 

Row | Molecule | hydrolysis of chromogenic substrate by DPP-7 | Km | Vmax
18 | CC(C)[C@H](NC(=O)[C@H](Cc1ccccc1)NC(=O)OCc1ccccc1)C(=O)N[C@@H](CCCNC(=N)N)C(=O)Nc1ccc([N+](=O)[O-])cc1 [Z-Phe-Val-Arg-pNA] (Cbz-Phe-Val-Arg-pNA) | none of these was hydrolysed |  | 
19 | NCCCC[C@H](NC(=O)CN)C(=O)Nc1ccc([N+](=O)[O-])cc1 [H-Gly-Lys-pNA] (H-Gly-Lys-pNA) | none of these was hydrolysed |  | 
20 | NCCCC[C@H](NC(=O)OCc1ccccc1)C(=O)Nc1ccc([N+](=O)[O-])cc1 [Z-Lys-pNA] | none of these was hydrolysed |  | 
21 | NC(N)=NCCCC(NC(=O)c1ccccc1)C(=O)Nc1ccc([N+](=O)[O-])cc1 (racemic) [Nα-benzoyl-DL-arginine-pNA] | none of these was hydrolysed |  | 
22 | C[C@H](N)C(=O)NCC(=O)N[C@@H](CCCNC(=N)N)C(=O)Nc1ccc([N+](=O)[O-])cc1 [H-Ala-Gly-Arg-pNA] (H-Ala-Gly-Arg-pNA) | none of these was hydrolysed |  | 
23 | O=C(O)CC[C@H](NC(=O)OCc1ccccc1)C(=O)N[C@@H](CCC(=O)O)C(=O)Nc1ccc([N+](=O)[O-])cc1 [Z-Glu-Glu-pNA] (Cbz-Glu-Glu-pNA) | none of these was hydrolysed |  | 
24 | C[C@H](NC(=O)CCC(=O)O)C(=O)N[C@@H](C)C(=O)Nc1ccc([N+](=O)[O-])cc1 [N-suc-Ala-Ala-pNA] (Suc-Ala-Ala-pNA) | none of these was hydrolysed |  | 
25 | NCCCC[C@H](NC(=O)[C@H](Cc1ccc(O)cc1)NC(=O)OCc1ccccc1)C(=O)N[C@@H](CCCN=C(N)N)C(=O)Nc1ccc([N+](=O)[O-])cc1 [Z-Tyr-Lys-Arg-pNA] (Cbz-Tyr-Lys-Arg-pNA) | none of these was hydrolysed |  | 
26 | CC(C)C[C@H](N)C(=O)N[C@H](C(=O)N[C@@H](CCCNC(=N)N)C(=O)Nc1ccc([N+](=O)[O-])cc1)[C@@H](C)O [H-Leu-Thr-Arg-pNA] (H-Leu-Thr-Arg-pNA) | none of these was hydrolysed |  | 
27 | CC(C)C[C@H](NC(=O)OCc1ccccc1)C(=O)N[C@@H](CC(C)C)C(=O)N[C@@H](CCC(=O)O)C(=O)Nc1ccc([N+](=O)[O-])cc1 [Z-Leu-Leu-Glu-pNA] (Cbz-Leu-Leu-Glu-pNA) | none of these was hydrolysed |  | 
28 | NC(N)=NCCC[C@H](NC(=O)[C@H](Cc1ccccc1)NC(=O)OCc1ccccc1)C(=O)Nc1ccc([N+](=O)[O-])cc1 [Z-Phe-Arg-pNA] (Cbz-Phe-Arg-pNA) | none of these was hydrolysed |  | 
29 | C[C@H](N)C(=O)NCC(=O)Nc1ccc([N+](=O)[O-])cc1 [H-Ala-Gly-pNA] (H-Ala-Gly-pNA) | none of these was hydrolysed |  | 
30 | N=C(N)NCCC[C@H](NC(=O)[C@H](CCCCN)NC(=O)OCc1ccccc1)C(=O)Nc1ccc([N+](=O)[O-])cc1 [Z-Lys-Arg-pNA] (Cbz-Lys-Arg-pNA) | none of these was hydrolysed |  | 
31 | C[C@H](N)C(=O)N[C@@H](Cc1ccccc1)C(=O)Nc1ccc([N+](=O)[O-])cc1 [H-Ala-Phe-pNA] |  | 441 µM | 170.06
32 | C[C@H](N)C(=O)N[C@@H](Cc1ccccc1)C(=O)N1CCC[C@H]1C(=O)Nc1ccc([N+](=O)[O-])cc1 [H-Ala-Phe-Pro-pNA] (H-Ala-Phe-Pro-pNA) | none of these was hydrolysed |  | 
33 | NCC(=O)Nc1ccc([N+](=O)[O-])cc1 [H-Gly-pNA] | none of these was hydrolysed |  | 
34 | C[C@H](N)C(=O)Nc1ccc([N+](=O)[O-])cc1 [H-Ala-pNA] | none of these was hydrolysed |  | 
